Reference: ChEMBL document CHEMBL1255222, “Exploring the neuroleptic substituent in octoclothepin: potential ligands for positron emission tomography with subnanomolar affinity for α(1)-adrenoceptors” (J Med Chem, 2010)

How the values were obtained:
[1] = Apparent permeability across human Caco-2 cells; type: ADME, cell-based
[2] = physchem; details: octanol/water

SMILES | Papp [1] | logD [2]
CN1CCC(c2cn(-c3ccc(F)cc3)c3ccc(-c4cncnc4)cc23)CC1 | 13 ×10⁻⁶ cm/s | 1.9
CC(=O)NCc1ccc2c(c1)C(N1CCN(C)CC1)Cc1ccccc1S2 (racemic) | 33 ×10⁻⁶ cm/s | 2.65
CCN1CCC[C@H]1CNC(=O)c1c(O)c(Cl)cc(Cl)c1OC [RACLOPRIDE] | 66 ×10⁻⁶ cm/s | –

More lines, now with the values ahead:

Papp [1] | logD [2] | SMILES
12 ×10⁻⁶ cm/s | 3.06 | Cn1nnc(-c2ccc3c(c2)c(C2CCN(CCN4CCNC4=O)CC2)cn3-c2ccc(F)cc2)n1
57 ×10⁻⁶ cm/s | 3.1 | CC(C)C(=O)NCc1ccc2c(c1)C(N1CCN(C)CC1)Cc1ccccc1S2 (racemic)
